This is an account of results in ChEMBL document CHEMBL1201862, “PubChem BioAssay data set” (2004).

What all share (assay): inhibition of tumour cell growth, NCI panel, 48 h
Assay [1] deals with SK-MEL-28.
Assay [2] relates to SW-620.
For assay [3], the system named is CAKI-1.
For assay [4], the system named is SN12C.
The test system of assay [5] is SNB-75.
The subject of assay [6] is NCI/ADR-RES.
Assay [7] relates to HCC 2998.
Assay [8] deals with MOLT-4.
The test system of assay [9] is SNB-19.
Assay [10] relates to COLO 205.
For assay [11], the system named is UACC-62.
Assay [12] concerns T47D.
Assay [13] deals with M14.
Assay [14] deals with MDA-MB-231.
Assay [15] deals with HL-60.
Assay [16] relates to SR.
For assay [17], the system named is NCI-H522.
For assay [18], the system named is SF-539.
In assay [19] the test system is KM12.
Assay [20] relates to HCT-15.

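Cells were grown in 96-well plates and exposed to each compound for 48 hours at five concentrations; endpoints were interpolated linearly between bracketing concentrations, or set to the highest concentration if not reached. GI50 marks 50% less growth.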 Calls of active or inactive are those of the source. Rule as the data show it: active = GI50 up to about 1.1 µM and inactive = higher.

Regarding `CSS(C)(=O)=O`, the GI50 is 21.6 µM (inactive) in assay [1]; 46.7 µM (inactive) in assay [2]; 22.8 µM (inactive) in assay [3]; 21.5 µM (inactive) in [4]; 32.3 µM (inactive) in assay [5]; 58.9 µM (inactive) in [6]. In addition, the GI50 in [7] is 27.8 µM (inactive); in assay [8], 2.43 µM (inactive); in assay [9] it was > 100 µM (inactive); in assay [10], 1.95 µM (inactive); in assay [11], 19.4 µM (inactive); in assay [12], 15.1 µM (inactive). Also, the GI50 in [13] is 26.6 µM (inactive); in assay [14] it was 30.8 µM (inactive); in [15] it was 24.9 µM (inactive); in assay [16], 15.3 µM (inactive); in assay [17], 18.2 µM (inactive); in [18], 20.4 µM (inactive). Besides, the GI50 in [19] is 34.3 µM (inactive); in assay [20], 24.9 µM.

Turning to `CCCCCCCCCCCCCCCCCc1nc(Cl)nc(Cl)c1Cl`, the GI50 in assay [1], in assay [2], in assay [3], in assay [4], in assay [5] and in assay [6] was > 100 µM (inactive) in each case. Besides, the GI50 in assay [7] is > 100 µM (inactive); in assay [8], 76.7 µM (inactive); in assay [9], > 100 µM (inactive); in assay [10] it was > 100 µM (inactive); in assay [11], > 100 µM (inactive); in assay [12] it was > 100 µM (inactive). Moreover, the GI50 is > 100 µM (inactive) in [13]; > 100 µM (inactive) in [14]; > 100 µM (inactive) in [15]; 52.2 µM (inactive) in assay [16]; > 100 µM (inactive) in [17]; > 100 µM (inactive) in assay [18]. Further, the GI50 is > 100 µM (inactive) in assay [19] and greater than 100 µM in assay [20].

For the molecule `C/C(=N/NC(=S)Nc1ccc([N+](=O)[O-])cc1)c1cccc(/C(C)=N\NC(=S)Nc2ccc([N+](=O)[O-])cc2)n1`, the GI50 in assay [1] was > 100 µM (inactive); in assay [2], 0.364 µM (active); in assay [3], 0.631 µM (active); in assay [4] it was 0.671 µM (active); in assay [5], 3.3 µM (inactive); in [6], 0.469 µM (active). In addition, the GI50 in assay [7] is 1.02 µM (active); in [8], 0.308 µM (active); in assay [9], 1.33 µM (inactive); in assay [10] it was 0.218 µM (active); in assay [11], 0.493 µM (active); in assay [12], 2.16 µM (inactive). The GI50 is 0.321 µM (active) in [13]; 0.56 µM (active) in [14]; 0.265 µM (active) in assay [15]; 0.216 µM (active) in assay [16]; 0.628 µM (active) in [17]; 0.458 µM (active) in assay [18]. Further, the GI50 in assay [19] is 0.348 µM (active); in assay [20], 0.125 µM.

`CSC1(SC2=NCCN2)SC2(NCCN2)S1`: the GI50 was 20.2 µM (inactive) in assay [1]; 9.04 µM (inactive) in [2]; 13.6 µM (inactive) in [3]; 20.7 µM (inactive) in assay [4]; 17.3 µM (inactive) in [5]; 31.8 µM (inactive) in [6]. In addition, the GI50 was 15.5 µM (inactive) in assay [7]; 10.8 µM (inactive) in assay [8]; 20.3 µM (inactive) in [9]; 21.3 µM (inactive) in assay [10]; 16.9 µM (inactive) in assay [11]; 0.9 µM (active) in assay [12]. For the same molecule, the GI50 is 21.3 µM (inactive) in [13]; 21.1 µM (inactive) in assay [14]; 21 µM (inactive) in assay [15]; 5.7 µM (inactive) in assay [16]; 11.8 µM (inactive) in assay [17]; 16.7 µM (inactive) in assay [18]. Further, the GI50 is 2.3 µM (inactive) in assay [19] and 17.7 µM in [20].

For `COc1ccc(/C=C/c2cc(O)cc(OC3OC(CO)C(O)C(O)C3O)c2)cc1O` (stereo not given), the GI50 is > 100 µM (inactive) in [1]; > 100 µM (inactive) in [2]; > 100 µM (inactive) in assay [3]; > 100 µM (inactive) in [4]; > 100 µM (inactive) in [5]; 94 µM (inactive) in assay [6]. Further, the GI50 in assay [7] was > 100 µM (inactive); in assay [8], > 100 µM (inactive); in assay [9] it was > 100 µM (inactive); in assay [10], > 100 µM (inactive); in assay [11], 19.4 µM (inactive); in assay [12], > 100 µM (inactive). In addition, the GI50 was > 100 µM (inactive) in assay [13]; > 100 µM (inactive) in assay [14]; > 100 µM (inactive) in assay [15]; > 100 µM (inactive) in [16]; 44 µM (inactive) in assay [17]; 57.1 µM (inactive) in assay [18]. Also, the values for the GI50 in assay [19] and in [20] were 18.9 µM (inactive) and 6.01 µM, respectively.

As to `CO[C@H]1C[C@H](O[C@H]2CC[C@@]3(C)[C@H](CC[C@@H]4[C@@H]3CC[C@]3(C)[C@@H](C5=CC(=O)OC5)CC[C@]43O)C2)O[C@H](C)[C@H]1O`, the GI50 in [1] is 0.024 µM (active); in assay [2], < 0.01 µM (active); in [3], < 0.01 µM (active); in assay [4] it was < 0.01 µM (active); in assay [5], < 0.0134 µM (active); in assay [6], < 0.01 µM (active). The GI50 was 0.015 µM (active) in [7]; < 0.01 µM (active) in assay [8]; 0.0158 µM (active) in [9]; 0.0695 µM (active) in [10]; < 0.0125 µM (active) in assay [11]; < 0.01 µM (active) in [12]. Moreover, the GI50 in assay [13] was 0.0168 µM (active); in assay [14], 0.0498 µM (active); in [15], < 0.01 µM (active); in assay [16], < 0.01 µM (active); in [17], < 0.01 µM (active); in [18] it was < 0.01 µM (active). For the same molecule, the GI50 is < 0.011 µM (active) in assay [19] and less than 0.01 µM in [20].

`COc1ccc(N2C(=O)C(Cl)C2c2cc3cc(Br)ccc3nc2Cl)cc1` (stereo not given): the GI50 was 7.28 µM (inactive) in assay [1]; 5.55 µM (inactive) in [2]; 6.32 µM (inactive) in [3]; 5.79 µM (inactive) in [4]; 20.5 µM (inactive) in assay [5]; 5.41 µM (inactive) in [6]. The GI50 was 4.09 µM (inactive) in assay [7]; 4.38 µM (inactive) in [8]; 9.93 µM (inactive) in assay [9]; 4.91 µM (inactive) in assay [10]; 4.37 µM (inactive) in [11]; 15.1 µM (inactive) in assay [12]. Moreover, the GI50 in assay [13] was 4.86 µM (inactive); in assay [14] it was 4.57 µM (inactive); in assay [15], 5.98 µM (inactive); in assay [16], 1.33 µM (inactive); in assay [17] it was 3.81 µM (inactive); in assay [18], 5.07 µM (inactive). Moreover, the GI50 was 10.9 µM (inactive) in assay [19] and 4.71 µM in [20].

Turning to `CCOP(C)(=O)C(Cc1c[nH]c2ccccc12)C(=O)O` (stereo not given), the GI50 in assay [1], in assay [2], in assay [3], in assay [4], in assay [5] and in assay [6] was > 100 µM (inactive) throughout. The GI50 in assay [7], in assay [8], in assay [9], in [10], in [11] and in [12] was > 100 µM (inactive) throughout. Further, the GI50 in assay [13], in [14], in [15], in assay [16], in assay [17] and in assay [18] was > 100 µM (inactive) throughout. The values for the GI50 in [19] and in assay [20] were > 100 µM (inactive) and greater than 100 µM, respectively.

With `CCCCCCCCCCCCOCCCOP(=O)([O-])OCC[N+](C)(C)C`, the GI50 in assay [1] is 58.5 µM (inactive); in assay [2] it was 63.5 µM (inactive); in [3], 13.2 µM (inactive); in [4] it was 28.5 µM (inactive); in assay [5], 24.9 µM (inactive); in assay [6], > 81.1 µM (inactive). Besides, the GI50 was 7.4 µM (inactive) in [7]; 20.2 µM (inactive) in assay [8]; 20.6 µM (inactive) in assay [9]; 6.75 µM (inactive) in [10]; 28.1 µM (inactive) in [11]; 3.64 µM (inactive) in [12]. Moreover, the GI50 was 32.8 µM (inactive) in assay [13]; 11.3 µM (inactive) in assay [14]; 7.21 µM (inactive) in [15]; 11.9 µM (inactive) in [16]; 22.7 µM (inactive) in [17]; 31.2 µM (inactive) in [18]. In addition, the GI50 in assay [19] is 2.95 µM (inactive); in assay [20], 25.6 µM.

`CN(C)c1ccc(/C=C2\Oc3ccccc3C2=O)cc1`: the GI50 was > 100 µM (inactive) in assay [1]; > 100 µM (inactive) in assay [2]; > 100 µM (inactive) in [3]; > 100 µM (inactive) in assay [4]; > 100 µM (inactive) in assay [5]; 68.5 µM (inactive) in assay [6]. Besides, the GI50 in [7], in assay [8], in assay [9], in assay [10], in assay [11] and in [12] was > 100 µM (inactive) throughout. In addition, the GI50 was > 100 µM (inactive) in [13]; > 100 µM (inactive) in [14]; > 100 µM (inactive) in assay [15]; 31 µM (inactive) in assay [16]; 90.4 µM (inactive) in [17]; > 100 µM (inactive) in [18]. In addition, the GI50 in assay [19] was > 100 µM (inactive); in assay [20] it was greater than 100 µM.
